The source of these data is patent US9067898B1, “Isothiazole derivatives as GPR120 agonists for the treatment of type II diabetes” (Janssen Pharmaceutica NV, priority 2014, dated 2015).

What is called EC50 is the concentration giving half of the maximal effect.

The assay concerns the target T1, Human GPR120 short form (Homo sapiens, UniProt Q5NUL3).
T1 construct: expressed in transfected cells
T1 sequence (Q5NUL3 1-361): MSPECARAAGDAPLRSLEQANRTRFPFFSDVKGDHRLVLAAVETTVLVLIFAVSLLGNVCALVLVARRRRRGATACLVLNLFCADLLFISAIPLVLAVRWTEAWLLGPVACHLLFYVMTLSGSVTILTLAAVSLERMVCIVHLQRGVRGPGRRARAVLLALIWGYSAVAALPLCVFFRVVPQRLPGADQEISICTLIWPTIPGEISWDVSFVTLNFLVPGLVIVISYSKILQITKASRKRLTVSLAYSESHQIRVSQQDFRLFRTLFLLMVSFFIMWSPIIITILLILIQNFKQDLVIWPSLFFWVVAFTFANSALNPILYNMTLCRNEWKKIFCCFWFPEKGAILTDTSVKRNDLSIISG
Kind of assay: Human GPR120 calcium flux assay (FLIPR), Procedure Calcium A. Type of assay: cell-based. The conditions noted are these: HEK-293 cells expressing human GPR120 short form, 2500 cells/well; read-out: GPR120 Ca2+ Assay A EC50. The text has this: This in vitro assay serves to assess test compound agonist activity against the short splice variant (SVS with Accession number NM_001195755.1 confirmed by sequencing data) of the GPR120 receptor. The Human Short splice variant #2 (NM_001195755.1) is missing an in-frame coding exon compared to variant 1 (the Human Long splice variant NM_181745.3), resulting in a shorter isoform (GPR120-S) lacking a 16 aa protein segment compared to isoform GPR120-L. The assay platform utilizes HEK-293 cells stably transfected to express the Human GPR120 short form. These cells are first loaded with the Ca^+2 sensitive dye, Fluo-4 NW. Upon stimulation, intracellular released Ca^+2 can bind to the dye and alter its fluorescence intensity. This increase in fluorescence signal, and thus the flux in intracellular [Ca^2+], is detected and quantitated by fluorescence imaging using a FLIPR reader. The effect of the agonist is measured as a function of concentration and used to calculate an EC50 based upon a response curve.
In this procedure 2500 cells/well were employed.
A Human GPR120 clone (Genbank accession number NM_001195755.1) was placed into the pcDNA3.1 mammalian expression vector carrying the neomycin resistance gene. A stable mammalian cell was generated by placing the above clone into a HEK293 background. Clonal cells responding to long chain fatty acids had expression levels of GPR120 confirmed by RT-qPCR. Human HEK-GPR120 cells were cultured in Dulbecco's Modified Eagle's Medium (DMEM)/F12 medium supplemented with 10% fetal bovine serum (FBS), 1% L-Glutamine and 1% penicillin/streptomycin and 0.5 mg/ml G-418. Cells were split 2 times a week to keep the cells in the log-phase growth.
In preparation for the assay, HEK cells stably transfected with Human GPR120 (2.5K cells per well in 25 uL growth medium) were seeded into 384-well plates and then incubated overnight (37° C., 5% CO2). The next day, the media was changed to 20 μL assay buffer and the cell starved for 1 h at 37° C. The dye loading solution (2× dye) was prepared using 10 mL assay buffer, 100 μL of 250 mM probenecid, 1 bottle of Component A, and 20 μl of dye in DMSO. Twenty μL of the 2× dye loading buffer was then added to each well. The plates were incubated at 37° C. for 30 min, then at room temperature for an additional 15 minutes, before performing the assay on FLIPR. Test compounds were prepared in assay buffer (2 uL of cpd+198 uL assay buffer, final DMSO in assay plate is 0.2%) at the desired concentration, more particularly at 100, 50, 25, 12.5, 6.25, 3.125, 1.562, 0.781, 0.391, 0.195, 0.098, 0.049, 0.024 and 0.012 μM.
The assay was performed on a FLIPR plate reader using the following parameters. Baseline was read for 10 seconds at 1 sec intervals. The program was set to transfer 10 μL of ligand from compound plate to cell plate after baseline reading. Aspiration was executed at: 10 μL/sec speed, 4.6 μL height; Dispensing was executed at: 30 μL/sec speed, 45 μL height. After compound addition, each well was read for 300 sec, with measurements collected at 1 sec intervals.
The kinetic data from the FLIPR was based upon a 5 minute window for data collection. The fluorescence of each sample well was used for individual calculations of a normalized RFU value, which was defined as maximum response minus the minimum response. The normalized fluorescence reading (RFU) was calculated as follows: RFU=Fmax−Fmin The data were fitted to a sigmoidal dose-response curve with a variable Hill slope (<2) using nonlinear regression with GraphPad Prism 5.0 to calculate the EC50 values. The Fitting Equation was: Y=Bottom+(Top−Bottom)/(1+10^((Log EC50−X)*HillSlope)), where X is the log of the concentration and Y is the response.
A general note: Calcium assays in cells follow changes in intracellular calcium, usually with a dye or a luminescent sensor.
For the compound `Cc1c(CCC(=O)O)ccc(OCc2c(-c3ccc(C(C)F)cc3)nsc2C(F)(F)F)c1C` (stereo not drawn) [Cpd 146, 3-[4-([3-[4-(1-fluoroethyl)phenyl]-5-(trifluoromethyl)-1,2-thiazol-4-yl]methoxy)-2,3-dimethylphenyl]propanoic acid], the EC50 is 165 nM.

For the compound `CCc1ccc(-c2nsc(C3CC3)c2COc2ccc(CCC(=O)O)c(C)c2C)cc1` [Cpd 149, 3-(4-[[5-cyclopropyl-3-(4-ethylphenyl)-1,2-thiazol-4-yl]methoxy]-2,3-dimethylphenyl)propanoic acid], the EC50 was 167 nM.

In the case of `CCc1ccc(-c2nsc(C(F)(F)F)c2COc2ccc(CCC(=O)O)c(F)c2C(F)(F)F)cc1` [Cpd 157, 3-(4-[[3-(4-ethylphenyl)-5-(trifluoromethyl)-1,2-thiazol-4-yl]methoxy]-2-fluoro-3-(trifluoromethyl)phenyl)propanoic acid], the EC50 came out at 188 nM.

Regarding `CCc1ccc(-c2sncc2COc2ccc(CCC(=O)O)c(C)c2C)cc1` [Cpd 158, 3-(4-[[5-(4-ethylphenyl)-1,2-thiazol-4-yl]methoxy]-2,3-dimethylphenyl)propanoic acid], the EC50 came to 191 nM.

For `C#Cc1ccc(-c2nscc2COc2ccc(CCC(=O)O)c(C)c2C)cc1` [Cpd 161, 3-(4-((3-(4-ethynylphenyl)isothiazol-4-yl)methoxy)-2,3-dimethylphenyl)propanoic acid], the EC50 worked out at 202 nM.

For the compound `CCc1ccc(-c2nsc(C(F)(F)F)c2COc2c(F)cc(C3CC3C(=O)O)cc2F)cc1` (stereo not drawn) [Cpd 163, 2-(4-[[3-(4-ethylphenyl)-5-(trifluoromethyl)-1,2-thiazol-4-yl]methoxy]-3,5-difluorophenyl)cyclopropane-1-carboxylic acid], the EC50 stood at 203 nM.

For the compound `CCc1ccc(-c2nsc(C(F)(F)F)c2COc2ccc3c(c2)CCC3CC(=O)O)cc1` (stereo not drawn) [Cpd 176, 2-(5-[[3-(4-ethylphenyl)-5-(trifluoromethyl)-1,2-thiazol-4-yl]methoxy]-2,3-dihydro-1H-inden-1-yl)acetic acid], the EC50 came to 261 nM.

As to `COc1cc(-c2nsc(C(F)(F)F)c2COc2c(F)cc(CCC(=O)O)cc2F)ccc1Cl` [Cpd 177, 3-(4-((3-(4-chloro-3-methoxyphenyl)-5-(trifluoromethyl)isothiazol-4-yl)methoxy)-3,5-difluorophenyl)propanoic acid], the EC50 came to 263 nM.

Regarding `Cc1c(CCC(=O)O)ccc(OCc2c(-c3ccc(C(C)(F)F)cc3)nsc2C(F)(F)F)c1C` [Cpd 178, 3-[4-([3-[4-(1,1-difluoroethyl)phenyl]-5-(trifluoromethyl)-1,2-thiazol-4-yl]methoxy)-2,3-dimethylphenyl]propanoic acid], the EC50 amounted to 263 nM.

For the compound `COc1ccc(-c2snc(OC)c2COc2c(F)cc(CCC(=O)O)cc2F)cc1` [Cpd 182, 3-(3,5-difluoro-4-[[3-methoxy-5-(4-methoxyphenyl)-1,2-thiazol-4-yl]methoxy]phenyl)propanoic acid], the half-maximal effective concentration (EC50) worked out at 281 nM.

`COc1ccc(-c2snc(Cl)c2COc2ccc(CCC(=O)O)c(C)c2C)cc1` [Cpd 186, 3-(4-[[3-chloro-5-(4-methoxyphenyl)-1,2-thiazol-4-yl]methoxy]-2,3-dimethylphenyl)propanoic acid]: the EC50 is 303 nM.

On to `CCc1ccc(-c2nsc(C(F)(F)C(F)(F)F)c2COc2ccc(CCC(=O)O)c(C)c2C)cc1` [Cpd 192, 3-(4-[[3-(4-ethylphenyl)-5-(pentafluoroethyl)-1,2-thiazol-4-yl]methoxy]-2,3-dimethylphenyl)propanoic acid], for which the EC50 was 332 nM.

For the compound `CCc1ccc(-c2nsc(C(C)(F)F)c2COc2ccc(CCC(=O)O)c(C)c2C)cc1` [Cpd 200, 3-(4-[[5-(1,1-difluoroethyl)-3-(4-ethylphenyl)-1,2-thiazol-4-yl]methoxy]-2,3-dimethylphenyl)propanoic acid], the EC50 was found to be 453 nM.

With `O=C(O)CCc1cc(F)c(OCc2csnc2-c2ccc(Cl)s2)c(F)c1` [Cpd 202, 3-(4-((3-(5-chlorothiophen-2-yl)isothiazol-4-yl)methoxy)-3,5-difluorophenyl)propanoic acid], the EC50 turned out to be 468 nM.

For the compound `Cc1c(CCC(=O)O)ccc(OCc2csnc2-c2ccc(Cl)s2)c1C` [Cpd 204, 3-(4-((3-(5-chlorothiophen-2-yl)isothiazol-4-yl)methoxy)-2,3-dimethylphenyl)propanoic acid], the EC50 was found to be 496 nM.

Regarding `Cc1cc(OCc2c(-c3c(F)cc(Cl)cc3F)nsc2C(F)(F)F)c(F)cc1CCC(=O)O` [Cpd 207, 3-(4-((3-(4-chloro-2,6-difluorophenyl)-5-(trifluoromethyl)isothiazol-4-yl)methoxy)-5-fluoro-2-methylphenyl)propanoic acid], the EC50 was found to be 566 nM.

Consider `Cc1ccc(-c2snc(-c3ccccc3)c2COc2c(F)cc(CCC(=O)O)cc2F)c(F)c1` [Cpd 211, 3-(3,5-difluoro-4-[[5-(2-fluoro-4-methylphenyl)-3-phenyl-1,2-thiazol-4-yl]methoxy]phenyl)propanoic acid], for which the EC50 turned out to be 597 nM.

For `O=C(O)CCc1cc(F)c(OCc2c(C3CCOC3)nsc2C(F)(F)F)c(F)c1` (stereo not drawn) [Cpd 214, 3-(3,5-difluoro-4-((3-(tetrahydrofuran-3-yl)-5-(trifluoromethyl)isothiazol-4-yl)methoxy)phenyl)propanoic acid], the EC50 stood at 606 nM.

In the case of `CCc1ccc(-c2nsc(CC)c2COc2ccc(CCC(=O)O)c(C)c2C)cc1` [Cpd 217, 3-(4-[[5-ethyl-3-(4-ethylphenyl)-1,2-thiazol-4-yl]methoxy]-2,3-dimethylphenyl)propanoic acid], the EC50 came out at 677 nM.

Take `CCCc1ccc(-c2snc(Cl)c2COc2ccc(CCC(=O)O)c(C)c2C)cc1` [Cpd 218, 3-(4-[[3-chloro-5-(4-propylphenyl)-1,2-thiazol-4-yl]methoxy]-2,3-dimethylphenyl)propanoic acid]: the EC50 is 688 nM.

With `CCc1ccc(-c2nsc(C(F)(F)F)c2COc2ccc3c(c2)OCC3CCO)cc1` (stereo not drawn) [Cpd 220, 2-(6-[[3-(4-ethylphenyl)-5-(trifluoromethyl)-5H-1[3],2-thiazol-4-yl]methoxy]-2,3-dihydro-1-benzofuran-3-yl)ethan-1-ol], the EC50 amounted to 702 nM.

Consider `O=C(O)CCc1ccc(OCc2csnc2-c2ccc(Cl)s2)c(F)c1F` [Cpd 226, 3-(4-((3-(5-chlorothiophen-2-yl)isothiazol-4-yl)methoxy)-2,3-difluorophenyl)propanoic acid], for which the EC50 is 849 nM.

`CCc1ccc(-c2nsc(OC)c2COc2ccc(CCC(=O)O)c(C)c2C)cc1` [Cpd 228, 3-(4-[[3-(4-ethylphenyl)-5-methoxy-1,2-thiazol-4-yl]methoxy]-2,3-dimethylphenyl)propanoic acid]: the concentration giving a half-maximal response (EC50) amounted to 923 nM.

With `Cc1ccc(-c2snc(C(F)(F)F)c2COc2ccc(CCC(=O)O)c(C(F)(F)F)c2)c(C)c1` [Cpd 232, 3-(4-[[5-(2,4-dimethylphenyl)-3-(trifluoromethyl)-1,2-thiazol-4-yl]methoxy]-2-(trifluoromethyl)phenyl)propanoic acid], the EC50 was 1090 nM.
